Laboratory results reported in patent US20240425490A1, “SULFAMIDE RIBONUCLEOTIDE REDUCTASE (RNR) INHIBITORS AND USES THEREOF” (Boundless Bio, Inc., priority 2021, published 2024).
pIC50: −log10 of the molar value.

target: T1, RNR (RNR1:RNR2 1:1) (Homo sapiens, UniProt P23921); assay: RNR enzyme activity, rapid-fire mass spectrometry (RFMS) assay; type: biochemical; conditions: RNR 50 nM, CDP 5 μM, ATP 1 mM, 37° C., 45 min, compounds screened up to 50 μM, read-out: RF/MS IC50
T1 sequence (P23921 1-792): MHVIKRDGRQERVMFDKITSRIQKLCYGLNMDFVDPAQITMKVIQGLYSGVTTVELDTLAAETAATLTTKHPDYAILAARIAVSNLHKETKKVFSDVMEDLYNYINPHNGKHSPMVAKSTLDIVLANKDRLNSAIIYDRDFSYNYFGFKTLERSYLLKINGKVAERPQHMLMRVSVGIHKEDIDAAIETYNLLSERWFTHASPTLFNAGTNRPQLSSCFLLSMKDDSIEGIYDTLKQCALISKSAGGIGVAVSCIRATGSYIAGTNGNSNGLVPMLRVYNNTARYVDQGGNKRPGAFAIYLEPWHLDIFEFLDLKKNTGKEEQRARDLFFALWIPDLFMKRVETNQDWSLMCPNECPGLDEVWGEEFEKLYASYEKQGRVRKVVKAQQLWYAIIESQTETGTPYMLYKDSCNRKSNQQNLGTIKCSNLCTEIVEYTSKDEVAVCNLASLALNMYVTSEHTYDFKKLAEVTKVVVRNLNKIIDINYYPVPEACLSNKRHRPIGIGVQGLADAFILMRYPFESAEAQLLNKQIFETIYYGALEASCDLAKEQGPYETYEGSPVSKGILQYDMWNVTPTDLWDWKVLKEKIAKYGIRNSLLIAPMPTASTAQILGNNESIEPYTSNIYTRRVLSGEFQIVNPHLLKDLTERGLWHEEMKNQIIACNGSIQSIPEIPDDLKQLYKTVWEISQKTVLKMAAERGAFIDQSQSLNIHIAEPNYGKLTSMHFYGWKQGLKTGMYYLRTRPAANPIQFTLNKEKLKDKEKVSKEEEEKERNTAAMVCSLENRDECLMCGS
Procedure: A rapid-fire mass spectrometry (RFMS) assay was used to assess RNR enzyme activity using a 384 well plate and a robotic platform.
The plate layout included two validated reference compounds (Triapine (3-AP) and Hydroxyurea (HU)): • A dose response in duplicate; top concentration: 5 μM (3-AP) and 250 μM (HU), semi-log dilutions. • Spike wells in triplicate randomly spotted at four concentrations: • 250 μM, 100 μM, 30 μM and 2 μM for HU • 5 μM, 2 μM, 0.6 μM and 0.04 μM for 3-AP
First, the multidrop pipes were saturated for 30 minutes with enzymatic solution. Then 30 μL of Stop solution was distributed in column 24. Next, 15 μL of enzyme was distributed in column 1 to 24. Next, a pre-incubation step of 15 minutes at room temperature occurred, followed by distribution of 15 μL of substrate solution (column 1 to 24). Next, the plate was incubated for 45 minutes at 37° C. 30 μL of Stop solution was distributed to columns 1 to 23.
The final parameters for the enzyme reactions were: • Incubation: 37° C., 45 min • [CDP]: 5 μM; [ATP]: 1 mM; [NADPH]: No • [RNR] final: 50 nM with 1:1 (RNR1:RNR2) ratio • Final volume: 30 μL • Stop solution: 6% HCOOH containing 2 μM of 15

Structure (SMILES) | pIC50
Cc1ccc(F)c([C@@H](C)[C@H](NS(=O)(=O)N2CCC[C@@](C)(O)C2)c2n[nH]c(=O)o2)c1C [Example 22, (R)-N-((1S,2R)-2-(6-fluoro-2,3-dimethylphenyl)-1-(5-oxo-4,5-dihydro-1,3,4-oxadiazol-2-yl)propyl)-3-hydroxy-3-methylpiperidine-1-sulfonamide] | 4.00 to 5.00
Cc1ccc(F)c(C(C)[C@H](NS(=O)(=O)N2CCCC3CN(C(=O)OC(C)(C)C)CC32)c2n[nH]c(=O)o2)c1C (stereo partly drawn) [Example 23, tert-butyl 1-(N-((1S)-2-(6-fluoro-2,3-dimethylphenyl)-1-(5-oxo-4,5-dihydro-1,3,4-oxadiazol-2-yl)propyl)sulfamoyl)-octahydro-6H-pyrrolo[3,4-b]pyridine-6-carboxylate] | 5.00 to 6.00
Cc1ccc(F)c(C(C)[C@H](NS(=O)(=O)N2CCCC(C(C)C)C2)c2n[nH]c(=O)o2)c1C (stereo partly drawn) [Example 24, N-((1S)-2-(6-fluoro-2,3-dimethylphenyl)-1-(5-oxo-4,5-dihydro-1,3,4-oxadiazol-2-yl)propyl)-3-isopropylpiperidine-1-sulfonamide] | 6.00 to 7.00
Cc1ccc(F)c(C(C)[C@H](NS(=O)(=O)N2CCCC(N(C)C)C2)c2n[nH]c(=O)o2)c1C (stereo partly drawn) [Example 25, 3-(dimethylamino)-N-((1S)-2-(6-fluoro-2,3-dimethylphenyl)-1-(5-oxo-4,5-dihydro-1,3,4-oxadiazol-2-yl)propyl)piperidine-1-sulfonamide] | 4.00 to 5.00
CC(=O)NC1CCN(S(=O)(=O)N[C@H](c2n[nH]c(=O)o2)C(C)c2c(F)ccc(C)c2C)CC1 (stereo partly drawn) [Example 29, N-(1-(N-((1S)-2-(6-fluoro-2,3-dimethylphenyl)-1-(5-oxo-4,5-dihydro-1,3,4-oxadiazol-2-yl)propyl)sulfamoyl)piperidin-4-yl)acetamide] | 4.00 to 5.00
Cc1ccc(F)c(C(C)[C@H](NS(=O)(=O)N2CCC(CN(C)C)CC2)c2n[nH]c(=O)o2)c1C (stereo partly drawn) [Example 31, 4-((dimethylamino)methyl)-N-((1S)-2-(6-fluoro-2,3-dimethylphenyl)-1-(5-oxo-4,5-dihydro-1,3,4-oxadiazol-2-yl)propyl)piperidine-1-sulfonamide] | 4.00 to 5.00
Cc1ccc(F)c(C(C)[C@H](NS(=O)(=O)N2CCC(C(C)O)CC2)c2n[nH]c(=O)o2)c1C (stereo partly drawn) [Example 32, N-((1S)-2-(6-fluoro-2,3-dimethylphenyl)-1-(5-oxo-4,5-dihydro-1,3,4-oxadiazol-2-yl)propyl)-4-(1-hydroxyethyl)piperidine-1-sulfonamide] | 5.00 to 6.00
Cc1ccc(F)c(C(C)[C@H](NS(=O)(=O)N2CCC(C(F)(F)F)CC2)c2n[nH]c(=O)o2)c1C (stereo partly drawn) [Example 33, N-((1S)-2-(6-fluoro-2,3-dimethylphenyl)-1-(5-oxo-4,5-dihydro-1,3,4-oxadiazol-2-yl)propyl)-4-(trifluoromethyl)piperidine-1-sulfonamide] | 5.00 to 6.00
Cc1ccc(F)c(C(C)[C@H](NS(=O)(=O)N2CCC(c3ccccc3)CC2)c2n[nH]c(=O)o2)c1C (stereo partly drawn) [Example 34, N-((1S)-2-(6-fluoro-2,3-dimethylphenyl)-1-(5-oxo-4,5-dihydro-1,3,4-oxadiazol-2-yl)propyl)-4-phenylpiperidine-1-sulfonamide] | 5.00 to 6.00
Cc1ccc(F)c([C@@H](C)[C@H](NS(=O)(=O)N2CCCCC2c2ccccc2)c2n[nH]c(=O)o2)c1C (stereo partly drawn) [Example 35, N-((1S,2R)-2-(6-fluoro-2,3-dimethylphenyl)-1-(5-oxo-4,5-dihydro-1,3,4-oxadiazol-2-yl)propyl)-2-phenylpiperidine-1-sulfonamide] | 5.00 to 6.00
Cc1ccc(F)c([C@H](C)[C@H](NS(=O)(=O)N2CCCCC2c2ccccc2)c2n[nH]c(=O)o2)c1C (stereo partly drawn) [Example 36, N-((1S,2S)-2-(6-fluoro-2,3-dimethylphenyl)-1-(5-oxo-4,5-dihydro-1,3,4-oxadiazol-2-yl)propyl)-2-phenylpiperidine-1-sulfonamide] | 4.00 to 5.00
Cc1ccc(F)c([C@@H](C)[C@H](NS(=O)(=O)N2CCC(C(C)C)CC2)c2n[nH]c(=O)o2)c1C [Example 38, N-((1S,2R)-2-(6-fluoro-2,3-dimethylphenyl)-1-(5-oxo-4,5-dihydro-1,3,4-oxadiazol-2-yl)propyl)-4-isopropylpiperidine-1-sulfonamide] | 4.00 to 5.00
Cc1ccc(F)c([C@H](C)[C@H](NS(=O)(=O)N2CCC(C(C)C)CC2)c2n[nH]c(=O)o2)c1C [Example 39, N-((1S,2S)-2-(6-fluoro-2,3-dimethylphenyl)-1-(5-oxo-4,5-dihydro-1,3,4-oxadiazol-2-yl)propyl)-4-isopropylpiperidine-1-sulfonamide] | 5.00 to 6.00
Cc1ccc(F)c([C@@H](C)[C@H](NS(=O)(=O)N2CC3CCCC(C3)C2)c2n[nH]c(=O)o2)c1C [Example 43, N-((1S,2R)-2-(6-fluoro-2,3-dimethylphenyl)-1-(5-oxo-4,5-dihydro-1,3,4-oxadiazol-2-yl)propyl)-3-zabicyclo[3.3.1]nonane-3-sulfonamide] | 5.00 to 6.00
Cc1ccc(F)c([C@H](C)[C@H](NS(=O)(=O)N2CCC(C(F)F)CC2)c2n[nH]c(=O)o2)c1C [Example 44, 4-(difluoromethyl)-N-((1S,2S)-2-(6-fluoro-2,3-dimethylphenyl)-1-(5-oxo-4,5-dihydro-1,3,4-oxadiazol-2-yl)propyl)piperidine-1-sulfonamide] | 5.00 to 6.00
Cc1ccc(F)c(C(C)[C@H](NS(=O)(=O)N2CCC(OC(F)(F)F)CC2)c2n[nH]c(=O)o2)c1C (stereo partly drawn) [Example 46, N-((1S)-2-(6-fluoro-2,3-dimethylphenyl)-1-(5-oxo-4,5-dihydro-1,3,4-oxadiazol-2-yl)propyl)-4-(trifluoromethoxy)piperidine-1-sulfonamide] | 5.00 to 6.00

Results, then the compound that gave them:

pIC50 | Structure (SMILES)
5.00 to 6.00 | Cc1ccc(F)c(C(C)[C@H](NS(=O)(=O)N2CCCC(C#N)C2)c2n[nH]c(=O)o2)c1C (stereo partly drawn) [Example 26, 3-cyano-N-((1S)-2-(6-fluoro-2,3-dimethylphenyl)-1-(5-oxo-4,5-dihydro-1,3,4-oxadiazol-2-yl)propyl)piperidine-1-sulfonamide]
5.00 to 6.00 | CC(=O)NC1CCN(S(=O)(=O)N[C@H](c2n[nH]c(=O)o2)[C@@H](C)c2c(F)ccc(C)c2C)CC1 [Example 30, N-(1-(N-((1S,2S)-2-(6-fluoro-2,3-dimethylphenyl)-1-(5-oxo-4,5-dihydro-1,3,4-oxadiazol-2-yl)propyl)sulfamoyl)piperidin-4-yl)acetamide]
5.00 to 6.00 | CC(=O)N1CCN(S(=O)(=O)N[C@H](c2n[nH]c(=O)o2)C(C)c2c(F)ccc(C)c2C)CC1 (stereo partly drawn) [Example 37, 4-acetyl-N-((1S)-2-(6-fluoro-2,3-dimethylphenyl)-1-(5-oxo-4,5-dihydro-1,3,4-oxadiazol-2-yl)propyl)piperazine-1-sulfonamide]
4.00 to 5.00 | Cc1ccc(F)c([C@H](C)[C@H](NS(=O)(=O)N2CCC(CCl)CC2)c2n[nH]c(=O)o2)c1C [Example 40, 4-(chloromethyl)-N-((1S,2S)-2-(6-fluoro-2,3-dimethylphenyl)-1-(5-oxo-4,5-dihydro-1,3,4-oxadiazol-2-yl)propyl)piperidine-1-sulfonamide]
6.00 to 7.00 | Cc1ccc(F)c([C@@H](C)[C@H](NS(=O)(=O)N2CCC(CCl)CC2)c2n[nH]c(=O)o2)c1C [Example 41, 4-(chloromethyl)-N-((1S,2R)-2-(6-fluoro-2,3-dimethylphenyl)-1-(5-oxo-4,5-dihydro-1,3,4-oxadiazol-2-yl)propyl)piperidine-1-sulfonamide]
4.00 to 5.00 | Cc1ccc(F)c([C@H](C)[C@H](NS(=O)(=O)N2CC3CCCC(C3)C2)c2n[nH]c(=O)o2)c1C [Example 42, N-((1S,2S)-2-(6-fluoro-2,3-dimethylphenyl)-1-(5-oxo-4,5-dihydro-1,3,4-oxadiazol-2-yl)propyl)-3-azabicyclo[3.3.1]nonane-3-sulfonamide]
5.00 to 6.00 | Cc1ccc(F)c([C@@H](C)[C@H](NS(=O)(=O)N2CCC(C(F)F)CC2)c2n[nH]c(=O)o2)c1C [Example 45, 4-(difluoromethyl)-N-((1S,2R)-2-(6-fluoro-2,3-dimethylphenyl)-1-(5-oxo-4,5-dihydro-1,3,4-oxadiazol-2-yl)propyl)piperidine-1-sulfonamide]
